Patent US10858393B2, “Crystal of reduced glutathione and method for producing same” (KYOWA HAKKO BIO CO., LTD., priority 2016, dated 2020)
Where two headings read alike, the source gives them in different places.

How the values were obtained:
[1] = 100 g/L in water, hermetically sealed, 25° C. or 40° C., FIG. 1
Procedure: The vertical axis represents the peak area of L-cysteinyl-L-glycine with respect to the peak area of reduced glutathione which is taken as 100 in an HPLC analysis of the aqueous solution. […] In FIG. 1, the white circles indicate the results at 40° C., and the black lozenges indicate the results at 25° C.
An α-type crystal of reduced glutathione (manufactured by Kojin Co., Ltd.) was dissolved in water, and thereafter, the solution was adjusted to 100 g/L and hermetically sealed and placed in a thermostat bath at 25° C. or 40° C. while stirring. These reduced glutathione aqueous solutions were sampled over time and subjected to an HPLC analysis.

[2] = cited from earlier work

## N[C@@H](CCC(=O)N[C@@H](CS)C(=O)NCC(=O)O)C(=O)O [reduced glutathione, γ-L-glutamyl-L-cysteinyl-L-glycine]
[1]
  stability in aqueous solution (formation of L-cysteinyl-L-glycine over time, HPLC): decomposed over time in a temperature-dependent manner to produce L-cysteinyl-L-glycine
[2]; 10° C.
  saturation solubility in water: 83 mg/mL
[2]; 25° C.
  saturation solubility in water: 130 mg/mL
